Reference: patent publication US20230192683A1, “FUSED RING COMPOUNDS, PREPARATION METHOD THEREFOR, PHARMACEUTICAL COMPOSITIONS AND USE THEREOF” (priority 2020, published 2023)
Marks after values point to notes of the source that are not given here.

Columns and labels:
[1] = metabolic stability in pooled human liver microsomes; details: pH 7.4
Protocol: (§1) Metabolic degradation of a test compound was analyzed using pooled human liver microsomes and male rat liver microsomes, respectively, at 37° C.
(§2) After pre-incubation at 37° C. for 5 min, NADPH (5 mM, 60 µL) was added to initiate a reaction. A fixed volume of the reaction mixture (30 µL) was sampled into the solution at fixed time points (0, 5, 15, 30, 60 min) to quench the reaction. After centrifugation (4000 rpm, 15 min), the supernatant (100 µL) was mixed with distilled water (100 µL) and then subjected to LC-MS/MS analysis to test the amount of the compound. A half-life was calculated using a first-order reaction kinetic equation (Ct = C0 × e^-ket, T½ = Ln2/ke).

human SSTR4 = target: T1, human SSTR4 (Homo sapiens, UniProt P31391); test: cell-based human SSTR4 cAMP assay (agonist activity); details: SSTR4, EC50 (nM), Flp-In-CHO-SSTR4 stable pool, Forskolin-stimulated cAMP
T1 construct: expressed in transfected cells
Protocol: Purpose of test: A cell-based human SSTR4 cAMP assay was used to determine the agonistic effect of the test compound on an SSTR 4 receptor.
Cell culture and reagent preparation: cell line: Flp-In-CHO-SSTR4 stable pool; complete medium: Ham’s F-12 K + 10% FBS + 1 × penicillin-streptomycin (PS) + 600 µg/ml hygromycin B; cell seeding medium: Ham’s F-12K + 10% FBS; assay buffer: 1 × HBSS + 20 mM HEPES + 0.1%BSA + 500 uM IBMX.
The Flp-In-CHO-SSTR 4 stable pool cell line was cultured in a complete medium at 37° C., 5% CO2 until a confluency of 70% to 90%.
After TrypLE digestion, the cells were resuspended in the seeding medium and seeded in a 384-well cell culture plate (384 PE culture plate), with 7,000 cells per well, and were cultured overnight at 37° C., 5% CO2.
The cell culture plate was taken out, inverted at 200 g at room temperature for 5 s to remove the medium, then quickly filled with 15 µl of an experimental buffer to each experimental well, and centrifuged at 200 g at room temperature for 5 s.
2.5 µl of the 8x compound working solution diluted in step 3 was added to corresponding test wells, which were centrifuged at 200 g for 5 s at room temperature, and incubated at 37° C. for 10 min.
A 4 uM Forskolin working solution (8x) was prepared.
The cell plate was taken out and equilibrated to room temperature, then filled with 2.5 µl of the 8x Forskolin working solution prepared in step 6 to corresponding test wells, followed by RT at 200 g for 5 s, and left to stand at 37° C. for 30 min.
A Eu-cAMP tracer and Uliaght-anti-cAMP were freeze-thawed, the Eu-cAMP tracer was diluted 50-fold with a detection buffer, and the Uliaght-anti-cAMP was dilutd 150-fold.
10 µl of the Eu-cAMP tracer was added to all experimental wells, then 10 µl of the detection buffer was added to NC wells, and 10 µl of the Uliaght-anti-cAMP was added to the remaining experimental wells.
The reaction plate was centrifuged at 200 g for 30 s at room temperature, and after standing at 25° C. for 1 h, data was collected using Envision.
Compound EC50 was calculated using a GraphPad nonlinear fitting formula: […]
X: Compound concentration log value; Y: HTRF ratio

[2] = metabolic stability in male rat liver microsomes; details: pH 7.4
Protocol: as §1, §2

rat CFA pain model = test: single-dose pharmacodynamic study in rat CFA pain model (Von Frey PWT); format: in vivo
Protocol: Each male SD rat (7-8 weeks old) was injected with 50 microliters of CFA in the center of the left hind paw. A PWT basal value test was conducted 24 hours after modeling, and the drugs were administered after randomization.
There were 8 animals in each group, and the animals were weighed and administered according to Table 4.
For all groups of animals, paw withdrawal thresholds (PWTs) of the animals were tested using Von Frey after 1 h and 3 h of single administration.

human SSTR2 = target: T2, human SSTR2 (Homo sapiens, UniProt P30874); test: biochemical; details: 25° C., 2 hours, Cheng-Prusoff; read-out: Binding Ki (nM) SSTR2
T2 construct: expressed in transfected cells; host or cells: CHO-K1 (membrane homogenates)
Protocol: (§3) Cell membranes were then filtered and washed, and protein-bound radioactivity was measured with a suitable instrument. The Ki values of corresponding targets were calculated using a Cheng-Prusoff formula.

human SSTR5 = target: T3, human SSTR5 (Homo sapiens, UniProt P35346); test: biochemical; details: 25° C., 2 hours, Cheng-Prusoff; read-out: Binding Ki (nM) SSTR5
T3 construct: expressed in transfected cells; host or cells: CHO-K1 (membrane homogenates)
Protocol: as §3

human SSTR3 = target: T4, human SSTR3 (Homo sapiens, UniProt P32745); test: biochemical; details: 25° C., 2 hours, Cheng-Prusoff; read-out: Binding Ki (nM) SSTR3
T4 construct: expressed in transfected cells; host or cells: CHO-K1 (membrane homogenates)
Protocol: as §3

human SSTR1 = target: T5, human SSTR1 (Homo sapiens, UniProt P30872); test: biochemical; details: 25° C., 2 hours, Cheng-Prusoff; read-out: Binding Ki (nM) SSTR1
T5 construct: expressed in transfected cells; host or cells: CHO-K1 (membrane homogenates)
Protocol: as §3

T1 sequence (P31391 whole entry): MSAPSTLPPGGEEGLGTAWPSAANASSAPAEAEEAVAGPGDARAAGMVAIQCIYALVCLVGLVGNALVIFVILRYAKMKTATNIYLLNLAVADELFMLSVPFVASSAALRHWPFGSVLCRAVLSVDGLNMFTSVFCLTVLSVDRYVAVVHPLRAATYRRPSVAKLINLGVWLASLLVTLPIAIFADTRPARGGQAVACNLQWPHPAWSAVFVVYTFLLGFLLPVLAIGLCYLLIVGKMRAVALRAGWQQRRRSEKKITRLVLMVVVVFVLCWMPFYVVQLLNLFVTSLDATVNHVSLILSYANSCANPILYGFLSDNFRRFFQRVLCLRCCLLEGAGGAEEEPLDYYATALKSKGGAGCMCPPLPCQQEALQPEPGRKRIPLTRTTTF
T2 sequence (P30874 whole entry): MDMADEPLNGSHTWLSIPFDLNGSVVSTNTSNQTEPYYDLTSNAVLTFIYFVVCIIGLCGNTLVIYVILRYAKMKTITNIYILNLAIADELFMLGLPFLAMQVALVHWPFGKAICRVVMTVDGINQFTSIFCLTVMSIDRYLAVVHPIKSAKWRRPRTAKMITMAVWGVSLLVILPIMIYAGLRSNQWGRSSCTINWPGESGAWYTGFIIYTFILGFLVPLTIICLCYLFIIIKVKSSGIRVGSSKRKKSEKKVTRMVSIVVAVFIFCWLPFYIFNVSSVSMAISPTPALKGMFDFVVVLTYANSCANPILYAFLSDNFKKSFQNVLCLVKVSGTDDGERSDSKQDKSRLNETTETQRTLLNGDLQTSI
T5 sequence (P30872 whole entry): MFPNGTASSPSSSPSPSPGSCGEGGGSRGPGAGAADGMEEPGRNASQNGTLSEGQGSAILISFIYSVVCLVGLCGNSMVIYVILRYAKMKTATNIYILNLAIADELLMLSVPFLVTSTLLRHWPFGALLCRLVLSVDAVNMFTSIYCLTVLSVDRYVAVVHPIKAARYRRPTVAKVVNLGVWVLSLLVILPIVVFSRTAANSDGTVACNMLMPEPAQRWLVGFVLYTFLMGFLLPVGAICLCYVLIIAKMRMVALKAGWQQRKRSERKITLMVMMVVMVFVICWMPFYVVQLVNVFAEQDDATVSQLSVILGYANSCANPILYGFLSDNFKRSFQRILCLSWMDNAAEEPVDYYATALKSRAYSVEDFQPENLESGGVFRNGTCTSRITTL
T4 sequence (P32745 whole entry): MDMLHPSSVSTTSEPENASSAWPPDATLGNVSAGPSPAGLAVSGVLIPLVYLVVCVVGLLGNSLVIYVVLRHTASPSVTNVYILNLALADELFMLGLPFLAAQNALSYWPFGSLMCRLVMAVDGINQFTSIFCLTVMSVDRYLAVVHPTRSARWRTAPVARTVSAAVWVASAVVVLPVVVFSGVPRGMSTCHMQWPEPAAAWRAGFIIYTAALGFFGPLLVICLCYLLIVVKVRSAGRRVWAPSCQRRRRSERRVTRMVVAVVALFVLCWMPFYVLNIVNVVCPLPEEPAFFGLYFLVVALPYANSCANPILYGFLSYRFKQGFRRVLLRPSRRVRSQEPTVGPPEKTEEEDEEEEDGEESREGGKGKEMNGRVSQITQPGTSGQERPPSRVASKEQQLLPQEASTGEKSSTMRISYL
T3 sequence (P35346 whole entry): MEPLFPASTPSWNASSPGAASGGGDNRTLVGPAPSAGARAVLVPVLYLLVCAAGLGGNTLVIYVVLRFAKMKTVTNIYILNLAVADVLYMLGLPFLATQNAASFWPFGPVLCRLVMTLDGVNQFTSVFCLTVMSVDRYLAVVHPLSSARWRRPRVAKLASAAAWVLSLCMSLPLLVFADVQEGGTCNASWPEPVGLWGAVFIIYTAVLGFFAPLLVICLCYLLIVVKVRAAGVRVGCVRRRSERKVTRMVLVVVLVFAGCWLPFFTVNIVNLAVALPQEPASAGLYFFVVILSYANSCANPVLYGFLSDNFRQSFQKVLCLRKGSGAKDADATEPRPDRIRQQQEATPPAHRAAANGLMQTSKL

`CSc1cccc2c(C(C)(C)NC(=O)[C@H]3[C@@H]4CNC[C@@H]43)n[nH]c12` [Compound 15, (1R,5S,6R)-N-(2-(7-(Methylthio)-1H-Indazol-3-yl)Propan-2-yl)-3-Azabicyclo[3.1.0]Hexane-6-Carboxamide] showed a half-life at 1 µM ([1]; pooled human liver microsomes) of over 3.11 h, an EC50 (human SSTR4) of 0.046 nM and a half-life at 1 µM ([2]; rat liver microsomes) of over 3.11 h.
`CSc1nc(C(C)(C)NC(=O)[C@H]2[C@@H]3CNC[C@@H]32)n2cccc(C)c12` [Compound 17, (1R,5S,6R)-N-(2-(8-Methyl-1-(Methylthio)Imidazo[1,5-a]Pyridin-3-yl)Propan-2-yl)-3-Azabicyclo[3.1.0]Hexane-6-Carboxamide] gave a half-life at 1 µM ([1]; pooled human liver microsomes) of over 3.11 h, an EC50 (human SSTR4) of 0.068 nM and a half-life at 1 µM ([2]; rat liver microsomes) of over 3.11 h.
With `Cc1cccc2c(C(C)(C)NC(=O)[C@H]3[C@@H]4CNC[C@@H]43)nn(C)c12` [Control Compound A, reference compound] the “Mechanical allodynia test (PWT (g), mean) Baseline” value (rat CFA pain model; 10 mg/kg I.P. group, baseline 24 h after CFA, before administration) was 3.765 g, the “Mechanical allodynia test (PWT (g), mean) 1 hour” value (rat CFA pain model; 10 mg/kg I.P., 1 hour after single administration) was 3.813 g and the “Mechanical allodynia test (PWT (g), mean) 3 hours” value (rat CFA pain model; 10 mg/kg I.P., 3 hours after single administration) was 6.237 * g. For the same molecule, the “inhibition of CFA-induced mechanical allodynia (in words)” value (rat CFA pain model; 10 mg/kg I.P., single administration, FIG. 1) was “inhibited CFA-induced mechanical allodynia”, the Ki (human SSTR2) was over 5310 nM and the Ki (human SSTR5) was over 5650 nM. It also gave a Ki (human SSTR3) of over 3420 nM and a Ki (human SSTR1) of 1800 nM.
Molecule `CC(C)(NC(=O)[C@H]1[C@@H]2CNC[C@@H]21)c1ncc2c(Sc3nccs3)cccn12` [Compound 4, (1R,5S,6R)-N-(2-(8-(Thiazol-2-Ylsulfanyl)Imidazo[1,5-a]Pyridin-3-yl)Prop-2-yl)-3-Azabicyclo[3.1.0]Hexane-6-Carboxamide] has an EC50 (human SSTR4) of 36.7 nM.
With `CC(C)(NC(=O)[C@H]1[C@@H]2CNC[C@@H]21)c1ncc2c(SC3CCC3)cccn12` [Compound 12, (1R,5S,6R)-N-(2-(8-(Cyclobutylthio)Imidazo[1,5-a]Pyridin-3-yl)Prop-2-yl)-3-Azabicyclo[3.1.0]Hexane-6-Carboxamide] the EC50 (human SSTR4) was 1.83 nM.
`CSc1cccn2c(C(C)(C)NC(=O)[C@H]3[C@@H]4CNC[C@@H]43)ncc12.Cl` [Compound 1, (1R,5S,6R)-N-(2-(8-(Methylthio)Imidazo[1,5-a]Pyridin-3-yl)Prop-2-yl)-3-Azabicyclo[3.1.0]Hexane-6-Carboxamide Hydrochloride] gave a half-life at 1 µM ([1]; microsomes) of over 3.11 h, an EC50 (human SSTR4) of 0.15 nM and a half-life at 1 µM ([2]; microsomes) of over 3.11 h.
Work on `CSc1cccn2c(C(C)(C)NC(=O)C3C4CNCC43C)ncc12` (single isomer, unassigned) [Compound 5-P2, 1-methyl-N-(2-(8-(methylthio)imidazo[1,5-a]pyridin-3-yl)propan-2-yl)-3-azabicyclo[3.1.0]hexane-6-carboxamide] yielded an EC50 (human SSTR4) of 0.41 nM.
